{"source": "patent US12655096B2", "about": "“Crystalline polymorphs of Rigosertib sodium” (ASSIA CHEMICAL INDUSTRIES LTD., priority 2018, dated 2026)", "key": {"[1]": {"conditions": "as described in U.S. Pat. No. 8,476,320; cited from earlier work"}, "[2]": {"experiment": "Hygroscopicity (water absorption on exposure to relative humidity)", "assay_type": "physicochemical", "excerpt": "As used herein the term non-hygroscopic in relation to crystalline Rigosertib Sodium refers to less than 1.0% (w/w) absorption of water, by the crystalline Rigosertib Sodium as determined, for example, by TGA when exposed to 60% RH for 7 days at RT, or preferably 80% RH for 7 days at RT."}, "[3]": {"experiment": "Solid state stability on storage", "assay_type": "physicochemical"}}}
{"smiles": "COc1cc(OC)c(/C=C/S(=O)(=O)Cc2ccc(OC)c(NCC(=O)O)c2)c(OC)c1", "note": "[Amorphous Rigosertib Sodium, Rigosertib Sodium]", "values": [{"measurement": "hygroscopicity (water absorption)", "setting": "[1]", "result": "readily absorbs water after complete drying"}]}
{"smiles": "COc1cc(OC)c(/C=C/S(=O)(=O)Cc2ccc(OC)c(NCC(=O)O)c2)c(OC)c1", "note": "[Rigosertib Sodium Form A, Rigosertib Sodium]", "values": [{"measurement": "hygroscopicity", "setting": "[2]; non-hygroscopic defined as less than 1.0% (w/w) absorption of water", "result": "non-hygroscopic"}, {"measurement": "hygroscopicity at relative humidity", "setting": "[2]; up to about 80% relative humidity, about 7 days, 25° C.", "result": "substantially non-hygroscopic"}, {"measurement": "stability of the solid state form", "setting": "[3]", "result": "stable"}]}
{"smiles": "COc1cc(OC)c(/C=C/S(=O)(=O)Cc2ccc(OC)c(NCC(=O)O)c2)c(OC)c1", "note": "[Rigosertib Sodium Form E, Rigosertib Sodium]", "values": [{"measurement": "time for which the form is stable", "setting": "[3]; at RT", "result": "at least 4 M"}]}
